Test results reported in article PMC8400920, “Metabolism of Diterpenoids Derived from the Bark of Cinnamomum cassia in Human Liver Microsomes” (Pharmaceutics, 2021).
Structures can show the parent of a compound that is named as a salt.

Experiments:
CYPs = experiment: Metabolism of AHC in HLMs with SKF-525A, a nonselective CYP inhibitor; assay type: in vitro ADME, human; settings: 10 µM AHC, 1 mg/mL HLMs, NGS, 60 min
Protocol: To investigate CYP-mediated metabolism, 10 µM AHC was mixed with 1 mg/mL pooled HLMs and 0.1 M potassium phosphate buffer (pH 7.4). Then, SKF-525A, a general inhibitor of CYPs, was added at concentrations of 0.5, 1, and 5 mM. The reactions were initiated with the addition of NGS at […] for 60 min. After 60 min, the reactions were terminated by adding 400 µL of 100% acetonitrile. The mixtures were then centrifuged at 15,700× g for 10 min. Subsequently, 550 µL of supernatant was dried in a vacuum concentrator. The residue was dissolved in 100 µL of 20% MeOH (0.1% formic acid), and 5 µL of this sample was injected into a C18 column for LC–MS/MS analysis.
To confirm the metabolism of AHC by CYP enzymes, AHC was incubated in HLMs with SKF-525A, i.e., a nonspecific CYP inhibitor (Figure S7). […] Consequently, as the metabolism of AHC was inhibited by SKF-525A treatment, the production of all metabolites was reduced in an SKF-525A concentration-dependent manner.

[1] = system: human liver microsomes (HLMs); experiment: Metabolic stability of seven diterpenoids in human liver microsomes; assay type: in vitro ADME; settings: 10 µM, 0.5 mg/mL HLMs, NGS, 37 °C
Protocol: For metabolism profiling, 10 µM of each of the seven compounds isolated from C. cassia bark was added to 0.5 mg/mL of pooled HLMs and 0.1 M potassium phosphate buffer (pH 7.4). The HLMs were then preincubated at 37 °C for 1 min. After adding NGS, the reaction mixture was incubated at 37 °C for 60 min. After the 60 min incubation period, 50 µL of the reaction mixture was transferred to a new tube, and 50 µL of 100% ACN containing 0.1% formic acid and tolbutamide (internal standard) was added to terminate the reaction. The mixture was then vortexed, followed by centrifugation at 15,700× g (13,000 rpm) for 10 min (Eppendorf AG, Hamburg, Germany). Finally, 90 µL of the supernatant was transferred to a vial and injected into a C18 column for LC–MS/MS analysis.
The metabolism screening of the seven compounds was performed using an HPLC system (Thermo Fisher Scientific, Bremen, Germany) equipped with an HPG-3200SD standard binary pump, a WPS-3000 TRS analytical autosampler, and a TCC-3000 SD column compartment. The HPLC system was coupled with an HR-MS (Q-Exactive Focus Quadrupole-Orbitrap MS; Thermo Fisher Scientific, Waltham, MA, USA) at the Mass Spectrometry Convergence Research Center. The full MS resolution and scan ranges were 70,000 and 60–900 m/z, respectively. The MS/MS resolution was 35,000. The mass spectra were obtained in negative ion electrospray mode. A heated electrospray ionization (HESI-II) probe was used as an ion generator, with nitrogen as the sheath gas at 35 aux units and auxiliary gas at 12 aux units. The mass spectrometer was operated in negative ionization mode. The other parameters were as follows: spray voltage, 3.5 kV; capillary temperature, 320 °C; S-lens radio frequency level, 50; and aux gas heater temperature, 400 °C.
The mobile phase consisted of 100% water with 0.1% formic acid (mobile phase A) and 100% ACN with 0.1% formic acid (mobile phase B). For metabolic stability, the gradient conditions were set as follows: 5% of B at 0.5–2.0 min, 5–50% of B at 2.0–4.5 min, 50% of B at 4.5–7.0 min, and 50–5% of B at 7.0–10.0 min at 40 °C with a flow rate of 0.2 mL/min. For metabolite identification, the gradient conditions were as follows: 10% of B at 0–5 min, 10–55% of B at 5–15 min, 55% of B at 15–23 min, and 55–10% of B at 23–30 min with a flow rate of 0.25 mL/min. Chromatographic separation was performed using a Kinetex C18 column (150 × 2.1 mm, 2.6 μm, XB-C18 100 Å, S/No: H19-070128; Phenomenex, Torrance, CA, USA). Data were analyzed using Xcalibur version 4.0 software (Thermo Fisher Scientific, Waltham, MA, USA).
To confirm their metabolic stability, seven diterpenoids (AHC, anhydrocinnzeylanol, cinncassiol A, cinncassiol B, cinnzeylanol, cinnzeylanone, and cinnzeylanine) derived from the bark of C. cassia were incubated with HLMs in the presence of the NGS for 60 min (Figure 1B). The metabolic stability of each compound was determined according to the ratio of the peak area at 60 min to that at 0 min. […] Therefore, we identified the metabolites of AHC produced in HLMs.

SMILES: CCCC(C(=O)OCCN(CC)CC)(c1ccccc1)c1ccccc1 [SKF-525A, proadifen hydrochloride, reference compound]
- effect of SKF-525A on the metabolism of AHC in HLMs (CYPs): inhibited

SMILES: CC1=C(C(C)C)C[C@@]2(O)[C@@]3(C)CC(=O)O[C@@]4([C@H](O)[C@@H](C)CC[C@]34O)[C@@]12O [anhydrocinnzeylanol]
- decrease of stability in HLMs (peak area 60 min vs 0 min) [1]: approximately 20%
- fraction metabolized in HLMs (metabolized by) ([1]; 60 min): 20%

SMILES: CC1CCC2(O)C3(C)CC4(O)OC2(C1=O)C1(O)C3(O)CC(O)(C(C)C)C41C (stereo not shown) [cinnzeylanone]
- decrease of stability in HLMs (peak area 60 min vs 0 min) [1]: approximately 20%
